According to patent publication US4822787A, “3-pyrrolidinylthio-1-azabicyclo(3.2.0)-hept-2-ene-2-carboxylic acid compounds and antimicrobial activity thereof” (Fujisawa Pharmaceutical Co., Ltd., priority 1986, dated 1989):
Values after ≈ are worked out from the molar mass of the structure shown.

Assays:
Assay type in all cases: cell-based
[1] = tested on: P. aeruginosa 3036; assay: in vitro Antimicrobial Activity, two-fold agar-plate dilution method (MIC), P. aeruginosa 3036; settings: Pseudomonas aeruginosa, Mueller Hinton agar, 37° C., 20 hours, read-out: minimal inhibitory concentration (MIC)
Method: (§1) in vitro Antimicrobial Activity was determined by the two-fold agar-plate dilution method as described below. One loopful of 100-fold dilution of an overnight culture of a test strain in Mueller Hinton broth (Difco) (approximately 10^6 viable cells per ml) was spot-inoculated on Mueller Hinto agar^(*) (Difco) containing graded concentrations of the test compound, and the minimal inhibitory concentration (MIC) was expressed in terms of μg/ml after incubation at 37° C. for 20 hours.

[2] = tested on: H. influenzae 58; assay: in vitro Antimicrobial Activity, two-fold agar-plate dilution method (MIC), H. influenzae 58; settings: Haemophilus influenzae, added 5% horse blood-chocolate agar, 37° C., 20 hours, read-out: minimal inhibitory concentration (MIC)
Method: as §1, with “hours. [(*)added 5% horse blood-chocolate agar for the test of H. influenzae]” for “hours.”

[3] = tested on: S. aureus 2496; assay: in vitro Antimicrobial Activity, two-fold agar-plate dilution method (MIC), S. aureus 2496; settings: Staphylococcus aureus, Mueller Hinton agar, 37° C., 20 hours, read-out: minimal inhibitory concentration (MIC)
Method: as §1

[4] = tested on: E. cloacae 3013; assay: in vitro Antimicrobial Activity, two-fold agar-plate dilution method (MIC), E. cloacae 3013; settings: Enterobacter cloacae, Mueller Hinton agar, 37° C., 20 hours, read-out: minimal inhibitory concentration (MIC)
Method: as §1

MIC [1] [µg/mL]	MIC [2] [µg/mL]	MIC [3] [µg/mL]	MIC [4] [µg/mL]	Structure (SMILES)
0.39 (≈ 0.91 µM)	0.1 (≈ 0.233 µM)	0.05 (≈ 0.117 µM)	≤ 0.025	C[C@@H](O)[C@H]1C(=O)N2C(C(=O)O)=C(S[C@@H]3CN[C@H](COCCNC(N)=O)C3)[C@H](C)[C@H]12 [Compound of this invention, (4R,5S,6S)-6-[(1R)-1-hydroxyethyl]-4-methyl-7-oxo-3-[(2S,4S)-2-{(2-ureidoethyl)oxymethyl}pyrrolidin-4-yl]thio-1-azabicyclo[3.2.0]hept-2-ene-2-carboxylic acid]
1.56 (≈ 4.06 µM)	0.78 (≈ 2.03 µM)	1.56 (≈ 4.06 µM)	0.1 (≈ 0.26 µM)	C[C@@H](O)[C@H]1C(=O)N2C(C(=O)O)=C(S[C@@H]3CN[C@H](CNC(N)=O)C3)[C@H](C)[C@H]12 [Reference Compound, (4R,5S,6S)-6-[(1R)-1-hydroxyethyl]-4-methyl-7-oxo-3-[(2S,4S)-2-ureidomethylpyrrolidin-4-yl]thio-1-azabicyclo[3.2.0]hept-2-ene-2-carboxylic acid]
